Experimental findings from ChEMBL document CHEMBL1129765, “Azonia derivatives of the -carboline system. A new class of DNA intercalators” (Bioorg Med Chem Lett, 1996) are described below.

A word on the EC50: it is the concentration giving half of the maximal effect. The low end stands for greater potency, the high end for weaker potency.

For the assay, the system named is HT-29. Description: Compound was tested in vitro to inhibit 50% colon carcinoma HT-29 cell growth after 72 h. In kind it is functional, cell-based. The note with it: Homo sapiens, HT-29, 72 h.

Molecules are shown by their SMILES.

In the case of `COc1cccc2c1C(=O)c1c(O)c3c(c(O)c1C2=O)C[C@@](O)(C(=O)CO)C[C@@H]3O[C@H]1C[C@H](N)[C@H](O)[C@H](C)O1` [DOXORUBICIN], the EC50 turned out to be 2500 nM.
